Data from US20250230165A1, “HETEROCYCLIC COMPOUNDS FOR USE IN THE TREATMENT OF CANCER” (ARTIOS PHARMA LIMITED, priority 2021, published 2025).

Target: T1, Human Polθ polymerase domain (aa1820-2590) (Homo sapiens, UniProt O75417)
T1 construct: Human Polθ polymerase domain (aa1820-2590) was expressed in E. coli; made in house; host or cells: E. coli
T1 sequence (O75417 1820-2590): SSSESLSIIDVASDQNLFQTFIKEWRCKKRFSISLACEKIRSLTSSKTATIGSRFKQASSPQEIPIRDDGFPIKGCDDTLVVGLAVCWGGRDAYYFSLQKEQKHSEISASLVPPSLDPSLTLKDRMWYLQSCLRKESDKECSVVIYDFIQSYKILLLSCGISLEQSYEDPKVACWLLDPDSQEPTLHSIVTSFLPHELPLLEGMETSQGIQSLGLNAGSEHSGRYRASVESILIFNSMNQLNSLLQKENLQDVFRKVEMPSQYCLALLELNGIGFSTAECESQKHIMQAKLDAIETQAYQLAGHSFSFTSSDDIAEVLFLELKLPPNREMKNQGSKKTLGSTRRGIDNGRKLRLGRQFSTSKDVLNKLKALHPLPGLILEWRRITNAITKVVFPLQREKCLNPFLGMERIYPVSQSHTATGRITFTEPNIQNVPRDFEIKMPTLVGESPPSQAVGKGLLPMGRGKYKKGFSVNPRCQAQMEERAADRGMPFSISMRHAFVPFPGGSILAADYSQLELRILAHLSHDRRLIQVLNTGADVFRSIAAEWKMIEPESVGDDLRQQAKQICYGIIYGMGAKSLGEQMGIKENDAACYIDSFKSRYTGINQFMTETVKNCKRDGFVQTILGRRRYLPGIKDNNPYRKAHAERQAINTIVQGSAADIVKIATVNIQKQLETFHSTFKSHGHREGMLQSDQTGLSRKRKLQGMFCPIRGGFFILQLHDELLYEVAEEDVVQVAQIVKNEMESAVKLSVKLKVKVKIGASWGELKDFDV
Assay: Polθ Polymerase Domain Kinact/KI Assay (PicoGreen)
Type: biochemical
Conditions: 0.8 nM Polθ, 100 nM DNA substrate, kobs vs [I] fit for 2-step covalent inhibitor
Outline: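 Covalent Kinact/KI by PicoGreen DNA synthesis readout: E. coli-expressed Polθ polymerase domain (0.8 nM), 100 nM annealed DNA substrate, […], Tris pH 7.5 buffer with DTT, 1% DMSO; EDTA-stopped over 0–60 min time course. kobs from progress curves, then kobs vs [I] fit to two-step covalent model.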

SMILES | Kinact/Kl
C=CC(=O)N1CCN2C[C@@H](CN3C[C@H]4CC(=O)N(c5cc(C(F)(F)F)cc(C)n5)[C@@H]4C(=O)N(C)c4cccc(F)c43)N(C)CC2C1 (single isomer, unassigned) [Example 140b] | 230000 M⁻¹ s⁻¹
C=CC(=O)N1Cc2nc(CN3C[C@H]4CC(=O)N(c5cc(C(F)(F)F)cc(C)n5)[C@@H]4C(=O)N(C)c4cccc(Cl)c43)cn2CC1C (single isomer, unassigned) [Example 143a] | 1e+06 M⁻¹ s⁻¹
C=CC(=O)N1Cc2nc(CN3C[C@H]4CC(=O)N(c5cc(C(F)(F)F)cc(C)n5)[C@@H]4C(=O)Nc4cccc(Cl)c43)cn2CC1C (single isomer, unassigned) [Example 144a] | 1.06e+06 M⁻¹ s⁻¹
C=CC(=O)N1CC(N2CC[C@@H](CN3C[C@H]4CC(=O)N(c5cc(C(F)(F)F)cc(C)n5)[C@@H]4C(=O)N(C)c4cccc(Cl)c43)[C@H](C#N)C2)C1 (single isomer, unassigned) [Example 226a] | 230000 M⁻¹ s⁻¹
C=CC(=O)N1CC(N2CC[C@@H](CN3C[C@H]4CC(=O)N(c5cc(C(F)(F)F)cc(C)n5)[C@@H]4C(=O)N(C)c4cccc(Cl)c43)[C@@H](C#N)C2)C1 (single isomer, unassigned) [Example 227b] | 1.07e+06 M⁻¹ s⁻¹
C=CC(=O)N1Cc2cc(CN3C[C@H]4CC(=O)N(c5cc(C(F)(F)F)cc(C)n5)[C@@H]4C(=O)N(C)c4cccc(Cl)c43)cnc2C1CO (single isomer, unassigned) [Example 230] | 1.01e+06 M⁻¹ s⁻¹
C=CC(=O)N1Cc2cc(CN3C[C@H]4CC(=O)N(c5cc(C(F)(F)F)cc(C)n5)[C@@H]4C(=O)N(C)c4cccc(C)c43)cnc2C1CO (single isomer, unassigned) [Example 232] | 1.89e+06 M⁻¹ s⁻¹
C=CC(=O)N1Cc2cc(CN3C[C@H]4CC(=O)N(c5cc(C(F)(F)F)cc(C)n5)[C@@H]4C(=O)N(C)c4cccc(C)c43)cnc2C1COC (single isomer, unassigned) [Example 235] | 270000 M⁻¹ s⁻¹
C=CC(=O)N1Cc2cc(CN3C[C@H]4CC(=O)N(c5cc(C(F)(F)F)cc(C)n5)[C@@H]4C(=O)N(C)c4cccc(Cl)c43)cnc2C1COC (single isomer, unassigned) [Example 237] | 270000 M⁻¹ s⁻¹
C=CC(=O)N1Cc2cc(CN3C[C@H]4CC(=O)N(c5cc(C(F)(F)F)cc(C)n5)[C@@H]4C(=O)N(C)c4cccc(Cl)c43)ccc2C1CC#N (single isomer, unassigned) [Example 287b] | 1.19e+06 M⁻¹ s⁻¹

Next, values leading:

Kinact/Kl | SMILES
200000 M⁻¹ s⁻¹ | C=CC(=O)N1CCCC1c1ccc(CN2C[C@H]3CC(=O)N(c4cc(C(F)(F)F)cc(C)n4)[C@@H]3C(=O)N(C)c3cccc(F)c32)cc1 (single isomer, unassigned) [Example 141a]
1.75e+06 M⁻¹ s⁻¹ | C=CC(=O)N1CCn2cc(CN3C[C@H]4CC(=O)N(c5cc(C(F)(F)F)cc(C)n5)[C@@H]4C(=O)N(C)c4cccc(Cl)c43)nc2C1C (single isomer, unassigned) [Example 142a]
4.36e+06 M⁻¹ s⁻¹ | C=CC(=O)N1Cc2nc(CN3C[C@H]4CC(=O)N(c5cc(C(F)(F)F)cc(C)n5)[C@@H]4C(=O)N(C)c4cccc(C)c43)cn2CC1C (single isomer, unassigned) [Example 206a]
320000 M⁻¹ s⁻¹ | C=CC(=O)N1CC(N2CCCC(CN3C[C@H]4CC(=O)N(c5cc(C(F)(F)F)cc(C)n5)[C@@H]4C(=O)N(C)c4cccc(F)c43)C2)C1 (single isomer, unassigned) [Example 225a]
870000 M⁻¹ s⁻¹ | C=CC(=O)N1CC(N2CC[C@H](CN3C[C@H]4CC(=O)N(c5cc(C(F)(F)F)cc(C)n5)[C@@H]4C(=O)N(C)c4cccc(Cl)c43)[C@@H](C#N)C2)C1 (single isomer, unassigned) [Example 226b]
230000 M⁻¹ s⁻¹ | C=CC(=O)N1CC(N2CC[C@H](CN3C[C@H]4CC(=O)N(c5cc(C(F)(F)F)cc(C)n5)[C@@H]4C(=O)N(C)c4cccc(Cl)c43)[C@H](C#N)C2)C1 (single isomer, unassigned) [Example 227a]
